The target of one assay is T1, c-Src (Homo sapiens, UniProt P12931).
T1 construct: purchased Upstate Biotechnologies
Description: c-Src Kinase Assay (ELISA format). The format is biochemical. How it is done:
Inhibitors of Src (partially purified preparation purchased from Upstate Biotechnologies) tyrosine kinase activity are analyzed in an ELISA format. […] Horseradish Peroxidase (HRP)-conjugated anti-phosphotyrosine is used to detect phosphorylated peptide via a color reaction. Conditions recommended by the manufacturer are employed.
Reaction conditions: Five microliter aliquots of each compound prepared fresh at the time of the assay are added as a solution in 10mM HEPES pH 7.5, 10% DMSO to the reaction well. Thirty-five microliters of reaction mix containing Src, buffer and peptide/bovine serum albumin mix are added to the compound wells and incubated at 30°C for 10 minutes (reaction buffer: 50mM TrisHCl pH 7.5, 10mM MgCl2, 0.1mM EGTA, 0.5mM Na3VO4). The reaction is started by addition of 10 microliters of ATP, incubated at 30°C for 1 hour, and stopped by addition of 20 microliters of 0.5M EDTA. The reaction mixture with the phosphorylated peptide is then transferred to a streptavidin-coated microtiter plate (provided in the kit) and allowed to bind for 20 minutes. Unbound peptide and reaction mixture is decanted and the plate is washed with PBS six times. HRP-conjugated phosphotyrosine antibody supplied in the kit is incubated with the plate for one hour, then decanted. The plate is again washed with PBS six times.
Activity is determined as % inhibition as calculated by the formula: (1 - Abs/Abs(max)) x 100 = % inhibition.

In assay [1] the test system is Rat2 fibroblasts stably transformed with a plasmid containing a CMV promotor controlled v-Src/Hu c-Src fusion gene. Description: Anchorage Independent Src-transformed Fibroblast Proliferation Assay.
[2] abbreviates: read-out: anch-indep src-tx fib IC50, suspension growth, MTS on Day 5.
Where [3] appears, read: Rattus norvegicus, Rat2, 120 h, read-out: anch-indep src-tx fib IC50, suspension growth, MTS on Day 5.

pIC50: −log10 of the molar value. Several values for one entry are separate records, joined by “and”; a condition that tells them apart may be missing. Equal entries are not always repeated. Where two headings read alike, the source gives them in different places.

For “4-(2,4-Dichloro-5-methoxyanilino)-7-{5-[(4-hydroxy-1-piperidinyl)methyl]-2-thienyl}-3-quinolinecarbonitrile [Example 89]”, the pIC50 was 9.28 and 9.08 on c-Src; 7.05 in assay [1] (setting [2]).
“4-(2.4-Dichloro-5-methoxyanilino)-7-(3-formyl)-3-guinolinecarbonitrile [Example 112]”: the negative logarithm of the IC50 (pIC50) was 7.44 against c-Src and 5.14 in assay [1] (setting [2]).
For “4-[(2,4-Dichloro-5-methoxyphenyl)amino]-7-[4-(4-morpholinyl)phenyl]-3-quinolinecarbonitrile [Example 128]” the same measures were 8.49 and 6.19.
For the compound `N#Cc1cnc2cc(C=CCCCN3CCOCC3)ccc2c1Nc1ccc(Cl)cc1Cl` (mixture of isomers) [Example 12, 4-(2,4-Dichloroanilino)-7-[(E/Z)-5-(4-morpholin)-1-pentenyl]-3-quinolinecarbonitrile], the pIC50 against c-Src is 7.11; in assay [1] (setting [3]) it was below 5.00.
For `N#Cc1cnc2cc(C=CCCCCN3CCOCC3)ccc2c1Nc1ccc(Cl)cc1Cl` (mixture of isomers) [Example 16, 4-(2,4-Dichloroanilino)-7-[(E/Z)-6-(4-morpholinyl)-1-hexenyl]-3-quinolinecarbonitrile], the pIC50 is 7.36 against c-Src and below 5.00 in assay [1] (setting [3]).
As for `COc1cc(Nc2c(C#N)cnc3cc(-c4ccc(CN5CCCC5C(N)=O)cc4)ccc23)c(Cl)cc1Cl` (stereo in doubt) [Example 84, (2R)-1-{4-[3-Cyano-4-(2,4-dichloro-5-methoxyanilino)-7-quinolinyl]benzyl}-2-pyrrolidinecarboxamide], the negative-log IC50 (pIC50) on c-Src is 8.12; in assay [1] (Rattus norvegicus, Rat2, 120 h, read-out: anch-indep src-tx fib IC50), 6.11.
Consider `COc1cc(Nc2c(C#N)cnc3cc(-c4ccc(C5OCCO5)o4)ccc23)c(Cl)cc1Cl` [Example 5, 4-(2,4-Dichloro-5-methoxyanilino)-7-[5-(1,3-dioxolan-2-yl)-2-furyl]-3-quinolinecarbonitrile], for which the pIC50 on c-Src was 8.37; in assay [1] (setting [3]) it was 6.70.
Consider `COc1cc(Nc2c(C#N)cnc3cc(-c4ccc(C=O)o4)ccc23)c(Cl)cc1Cl` [Example 6, 4-(2,4-Dichloro-5-methoxyanilino)-7-(5-formyl-2-furyl)-3-quinolinecarbonitrile], for which the pIC50 on c-Src is 8.40; in assay [1] (setting [3]), 5.80.
For `N#Cc1cnc2cc(-c3ccc(CCN4CCOCC4)s3)ccc2c1Nc1ccc(Cl)cc1Cl` [Example 9, 4-(2,4-Dichloroanilino)-7-{5-[2-(4-morpholinyl)ethyl]-2-thienyl}-3-quinolinecarbonitrile], the negative logarithm of the IC50 (pIC50) against c-Src is 8.22; in assay [1] (setting [3]) it was 5.57.
Take `CCN1CCN(Cc2cc(-c3ccc4c(Nc5ccc(Cl)cc5Cl)c(C#N)cnc4c3)cs2)CC1` [Example 10, 4-(2,4-Dichloroanilino)-7-{5-[(4-ethyl-1-piperazinyl)methyl]-3-thienyl}-3-quinolinecarbonitrile]: the negative-log IC50 (pIC50) against c-Src is 8.62; in assay [1] (setting [3]), 6.05.
On to `N#Cc1cnc2cc(C#CCCCN3CCOCC3)ccc2c1Nc1ccc(Cl)cc1Cl` [Example 11, 4-(2,4-Dichloroanilino)-7-[5-(4-morpholinyl)-1-pentynyl]-3-quinolinecarbonitrile], for which the negative logarithm of the IC50 (pIC50) against c-Src was 7.37; in assay [1] (setting [3]), below 5.00.
In the case of `N#Cc1cnc2cc(-c3ccc(CN4CCOCC4)o3)ccc2c1Nc1ccc(Cl)cc1Cl` [Example 13, 4-(2,4-Dichloroanilino)-7-[5-(4-morpholinylmethyl)-2-furyl]-3-quinolinecarbonitrile], the negative-log IC50 (pIC50) is 7.98 and 8.40 on c-Src; 5.82 in assay [1] (setting [3]); 5.80 in assay [1] (setting [2]).
For `CN(C)CC#Cc1ccc2c(Nc3ccc(Cl)cc3Cl)c(C#N)cnc2c1` [Example 15, 4-(2,4-Dichloroanilino)-7-[3-(dimethylamino)-1-propynyl]-3-quinolinecarbonitrile], the pIC50 on c-Src was 7.20; in assay [1] (setting [3]), below 5.00.
Regarding `N#Cc1cnc2cc(-c3cc(CN4CCOCC4)c(CN4CCOCC4)s3)ccc2c1Nc1ccc(Cl)cc1Cl` [Example 17, 7-[4,5-Bis(4-morpholinylmethyl)-2-thienyl]-4-(2,4-dichloroanilino)-3-quinolinecarbonitrile], the pIC50 against c-Src is 9.15 and 8.68 and 8.51; in assay [1] (setting [3]) it was 6.51.
`CCN1CCN(Cc2cc(-c3ccc4c(Nc5cc(OC)c(Cl)cc5Cl)c(C#N)cnc4c3)cs2)CC1` [Example 19, 4-(2,4-Dichloro-5-methoxyanilino)-7-{5-[(4-ethyl-1-piperazinyl)methyl]-3-thienyl}-3-quinolinecarbonitrile]: the negative-log IC50 (pIC50) was 8.70 and 8.77 at c-Src; 6.80 in assay [1] (setting [3]).
In the case of `COc1cc(Nc2c(C#N)cnc3cc(-c4cc(CN5CCOCC5)c(CN5CCOCC5)s4)ccc23)c(Cl)cc1Cl` [Example 20, 7-[4,5-Bis(4-morpholinylmethyl)-2-thienyl]-4-(2,4-dichloro-5-methoxyanilino)-3-quinolinecarbonitrile], the pIC50 on c-Src was 8.96 and 9.10; in assay [1] (setting [3]) it was 7.40; in assay [1] (setting [2]), 7.52.
In the case of `COc1cc(Nc2c(C#N)cnc3cc(-c4ccc(CCCCN5CCOCC5)s4)ccc23)c(Cl)cc1Cl` [Example 22, 4-(2,4-Dichloro-5-methoxyanilino)-7-{5-[4-(4-morpholinyl)butyl]-2-thienyl}-3-quinolinecarbonitrile], the pIC50 at c-Src was 8.17; in assay [1] (setting [3]), 6.22.
`COc1cc(Nc2c(C#N)cnc3cc(-c4ccc(CN5CCOCC5)s4)ccc23)c(Cl)cc1Cl` [Example 23, 4-(2,4-Dichloro-5-methoxyanilino)-7-[5-(4-morpholinylmethyl)-2-thienyl]-3-quinolinecarbonitrile]: the pIC50 at c-Src is 8.70; in assay [1] (setting [3]), 7.05.
As for `COc1cc(Nc2c(C#N)cnc3cc(-c4csc(CN5CCOCC5)c4)ccc23)c(Cl)cc1Cl` [Example 24, 4-(2,4-Dichloro-5-methoxyanilino)-7-[5-(4-morpholinylmethyl)-3-thienyl]-3-quinolinecarbonitrile], the pIC50 against c-Src is 8.68 and 8.43; in assay [1] (setting [2]) it was 6.74.
As for `N#Cc1cnc2cc(-c3csc(CN4CCOCC4)c3)ccc2c1Nc1ccc(Cl)cc1Cl` [Example 25, 4-(2,4-Dichloroanilino)-7-[5-(4-morpholinylmethyl)-3-thienyl]-3-quinolinecarbonitrile], the pIC50 against c-Src is 8.44 and 8.22 and 8.31; in assay [1] (setting [3]), 5.89; in assay [1] (setting [2]), 6.03.
For the compound `COc1cc(Nc2c(C#N)cnc3cc(-c4cccc(CCN5CCOCC5)c4)ccc23)c(Cl)cc1Cl` [Example 28, 4-(2,4-Dichloro-5-methoxyanilino)-7-{3-[2-(4-morpholinyl)ethyl]phenyl}-3-quinolinecarbonitrile], the results for the pIC50 (on c-Src; in assay [1] (setting [3])) were 7.60 and 5.39, respectively.
On to `COc1cc(Nc2c(C#N)cnc3cc(-c4ccc(CN5CCOCC5)cc4)ccc23)c(Cl)cc1Cl` [Example 29, 4-(2,4-Dichloro-5-methoxyanilino)-7-[4-(4-morpholinylmethyl)phenyl]-3-quinolinecarbonitrile], for which the pIC50 against c-Src is 8.39 and 8.60; in assay [1] (setting [3]), 6.27; in assay [1] (setting [2]) it was 6.30.
In the case of `CCN1CCN(CCc2ccc(-c3ccc4c(Nc5cc(OC)c(Cl)cc5Cl)c(C#N)cnc4c3)cc2)CC1` [Example 32, 4-(2,4-Dichloro-5-methoxyanilino)-7-{4-[2-(4-ethyl-1-piperazinyl)ethyl]phenyl}-3-quinolinecarbonitrile], the negative logarithm of the IC50 (pIC50) against c-Src is 8.57; in assay [1] (setting [3]), 5.70; in assay [1] (setting [2]), 5.72.
Turning to `COc1cc(Nc2c(C#N)cnc3cc(-c4csc(CN5CCOCC5)c4)c(OC)cc23)c(Cl)cc1Cl` [Example 36, 4-(2,4-Dichloro-5-methoxyanilino)-6-methoxy-7-[5-(4-morpholinylmethyl)-3-thienyl]-3-quinolinecarbonitrile], the pIC50 is 8.72 against c-Src, 6.80 in assay [1] (setting [3]) and 6.70 in assay [1] (setting [2]).
As to `COc1cc(Nc2c(C#N)cnc3cc(C#CCN4CCOCC4)ccc23)c(Cl)cc1Cl` [Example 146, 4-(2,4-dichloro-5-methoxyanilino)-7-[3-(4-morpholinyl)-1-propynyl]-3-quinolinecarbonitrile], the pIC50 in assay [1] (setting [3]) was 5.19.
Take `COc1cc(Nc2c(C#N)cnc3cc(C#CCCl)ccc23)c(Cl)cc1Cl` [Example 152, 7-(3-chloro-1-propynyl)-4-[(2,4-dichloro-5-methoxyphenyl)amino]-3-quinolinecarbonitrile]: the pIC50 in assay [1] (setting [3]) was 5.32; in assay [1] (setting [2]), 5.42.
On to `COc1cc(Nc2c(C#N)cnc3cc(-c4ccc(CN5CCSCC5)cc4)ccc23)c(Cl)cc1Cl` [Example 153, 4-[(2,4-dichloro-5-methoxyphenyl)amino]-7-[4-(4-thiomorpholinylmethyl)phenyl]-3-quinolinecarbonitrile], for which the pIC50 was 5.55 in assay [1] (setting [3]) and 5.57 in assay [1] (setting [2]).

These data come from patent EP1268431B1 (Wyeth, priority 2000, dated 2001).
